Measurements reported in US7700576B2, “Pharmaceutical composition on basis of reverse transcriptase inhibitor and meldonium” (priority 2005, dated 2010).

Tests used:
cerebral cortex neurons = test: Cerebral cortex neuron degenerative transformation (molecular and external granule layers); type: in vivo, mice; details: after a fortnight
Procedure: (§1) For this purpose in an experiment of analogous pattern, the experimental animals' neurological reactions were assessed after a fortnight. For this assessment, the common test of pain latent period in the tail compression model as well as the appraisal of cerebral cortex neuron degenerative transformation was made (molecular and external granule layers).

[1] = mouse, in vivo
Procedure: as §1

myocardium = test system: myocardium; set-up: species or system mice; details: mouse, in vivo, ip
Procedure: The cardiotoxic action of Zidovudine and Meldonium pharmaceutical compositions was investigated by introducing them into male mice of initial mass 15.69±1.56 g during a fortnight. Throughout the experiment, the animals were kept in standard laboratory conditions at temperature of 22±0.5° C. and 12 hours light/darkness cycle, being fed with standard laboratory animal food. For the control group (n=6), 10 ml of 0.9% NaCl aqueous solution was intraperitoneally introduced daily (1st and 12th group). In a series of experiments, the following solutions were administered intraperitoneally for animal trial groups (including 6 mice each) daily. On the 15th day of the trial, the animals were decapitated, hearts were taken out and placed into 10% formalin solution. For immuno-histochemical research, organs were fixed in paraffin, and preparations of 4 μm thickness were sliced which were tinged according to the avidin-biotin immuno-histochemical method by use of DAKO LSAB reagent kit.

mice = details: p.o. for mice; cited from earlier work
[2] = oral introduction; cited from earlier work

Increase in degenerated neurons of the cerebral cortex as compared with the control (cerebral cortex neurons)	Algesia (pain latent period, tail compression) [1]	Compound	Histological changes of heart tissue (myocardium)	toxicity (mice)	bioavailability [2]
3 fold	provokes significant algesia	Cc1cn([C@H]2C[C@H](N=[N+]=[N-])[C@@H](CO)O2)c(=O)[nH]c1=O [AZT, 3′-Azido-3′-deoxythymidine]	induces perivascular oedema, degeneration of myocardium adipose tissue and infiltration with leucocytes		
3 fold	provokes significant algesia	Nc1ccn([C@@H]2CS[C@H](CO)O2)c(=O)n1 [Lamivudine, (2R-cis)-4-Amino-1-[2-(hydroxymethyl)-1,3-oxathiolan-5-yl]-2(IH)-pyrimidinone]			
		C[N+](C)(C)NCCC(=O)[O-] [Meldonium, 3-(2,2,2-Trimethylhydrazinium) propionate]		more than 25,000 mg/kg	very high
3 fold	provokes significant algesia	Cc1cn([C@H]2C=C[C@@H](CO)O2)c(=O)[nH]c1=O [Stavudine, 2′,3′-Didehydro-3′-deoxythymidine]	induces perivascular oedema, degeneration of myocardium adipose tissue and infiltration with leucocytes		
